Experimental findings from patent US20260345595A1, “NOVEL FLUORENE DERIVATIVE COMPOUND AND USE THEREOF” (JD BIOSCIENCE INC., priority 2022, published 2026) are described below.

This experiment concerns PDHE1α S293. As to the kind of experiment: In vitro PDH S293 phosphorylation inhibition, Western blot in HEK293 cells. The class given is cell-based. As to conditions: Homo sapiens, 5 hours. As to the method:
HEK293 cells, which are human embryonic kidney cells, were seeded at a density of 2×10^6 in a 60 mm dish, and cultured for 24 hours. After replacing the medium with a medium comprising 0.5% FBS, the compounds prepared according to Examples 1 to 54 were treated at various concentrations. 5 hours later, the cells were scraped off and collected into a 15 ml conical tube and centrifuged at 1500 rpm for 10 minutes. The supernatant was discarded, the resultant was washed with 1×PBS, and transferred to a 1.5 mL e-tube, followed by centrifugation at 10,000 rpm for 5 minutes. The supernatant was discarded again, a lysis buffer was added, and the cells were lysed on ice for 30 minutes. The cells were vortexed every 10 minutes to completely lyse, and centrifuged again at 10,000 rpm for 15 minutes at 4 °C., and the supernatant was collected. The protein in the supernatant was quantified using BCA technique, and the sample buffer was added to 20 μg of protein and allowed to react at 70 °C. for 5 minutes. The expression of PDHE1α S232, S293, S300, and total PDHE1α proteins was detected by Western blot, and the resulting PDH S293 phosphorylation inhibition is shown in Table 6.

As to `CC(C(=O)NNc1ncc(C(F)(F)F)cc1Cl)n1cc(-c2cc(F)cc3c2-c2ccccc2C3(O)C(F)(F)F)cn1` (centres unmarked) [Compound 32, N′-(3-chloro-5-(trifluoromethyl)pyridin-2-yl)-2-(4-(2-fluoro-9-hydroxy-9-(trifluoromethyl)-9H-fluoren-4-yl)-1H-pyrazol-1-yl)propanehydrazide], the inhibition at 1 µM was not below 50%.
The result for `COc1cc(-c2cnn(C(C)C(=O)NNc3ncc(C(F)(F)F)cc3Cl)c2)c2c(c1)C(O)(C(F)(F)F)c1ccccc1-2` (centres unmarked) [Compound 33, N′-(3-chloro-5-(trifluoromethyl)pyridin-2-yl)-2-(4-(9-hydroxy-2-methoxy-9-(trifluoromethyl)-9H-fluoren-4-yl)-1H-pyrazol-1-yl)propanehydrazide] reads not below 50%.
